Source: US20210277246A1, “PROBE FOR DETECTING CARBAPENEM-RESISTANT BACTERIA AND USE THEREOF” (priority 2018, published 2021)

Assays:
Experiment in all cases: MIC of carbapenems for isolates
Format in all cases: cell-based
Klebsiella oxytoca (VIM) = conditions: 1 isolate
[1] = system: Enterobacter cloacae (VIM); conditions: 1 isolate
[2] = system: Klebsiella pneumoniae (NDM/OXA); conditions: NDM/OXA co-producing, 1 isolate
Escherichia coli (OXA) = conditions: 3 isolates
[3] = system: Klebsiella pneumoniae (GES); conditions: 1 isolate
[4] = system: Enterobacter amnigenus (non-CP-CRE); conditions: Lelliottia amnigena, 4 isolates
[5] = system: Escherichia coli (non-producer); conditions: 32 isolates
[6] = system: Citrobacter freundii (OXA); conditions: 1 isolate
[7] = system: Citrobacter freundii (NDM); conditions: 1 isolate
[8] = system: Klebsiella pneumoniae (ESBL-producer, CTX-M); conditions: 24 isolates
[9] = system: Escherichia coli (non-CP-CRE); conditions: 8 isolates
[10] = system: Klebsiella pneumoniae (KPC/OXA); conditions: KPC/OXA co-producing, 2 isolates
[11] = system: Klebsiella pneumoniae (non-producer); conditions: 21 isolates
Klebsiella oxytoca (KPC) = conditions: 1 isolate
[12] = system: Citrobacter freundii (KPC); conditions: 1 isolate
[13] = system: Enterobacter cloacae (NDM); conditions: 2 isolates
[14] = system: Klebsiella aerogenes (KPC); conditions: 1 isolate
[15] = system: Klebsiella pneumoniae (OXA); conditions: 2 isolates
[16] = system: Morganella morganii (NDM); conditions: 1 isolate
Escherichia coli (NDM) = conditions: 4 isolates
[17] = system: Klebsiella pneumoniae (VIM); conditions: 1 isolate
[18] = system: Klebsiella pneumoniae (NDM); conditions: 1 isolate
Escherichia coli (KPC) = conditions: 3 isolates
[19] = system: Citrobacter freundii (non-CP-CRE); conditions: 1 isolate
[20] = system: Klebsiella pneumoniae (non-CP-CRE); conditions: 22 isolates
[21] = system: Escherichia coli (ESBL-producer, CTX-M); conditions: 29 isolates
Escherichia coli (IMP) = conditions: 1 isolate

SMILES: C[C@@H](O)[C@H]1C(=O)N2C(C(=O)O)=C(SCCN=CN)C[C@H]12 [IPM, imipenem]
- MIC (Klebsiella oxytoca (VIM)): 2 µg/mL
- MIC [1]: 4 µg/mL
- MIC [2]: 4 µg/mL
- MIC (Escherichia coli (OXA)): 0.5 to 8 µg/mL
- MIC [3]: > 16 µg/mL
- MIC [4]: 8 to 16 µg/mL
- MIC [5]: 0.25 to 0.5 µg/mL
- MIC [6]: 2 µg/mL
- MIC [7]: 8 µg/mL
- MIC [8]: 0.25 to 1 µg/mL
- MIC [9]: 0.5 to 16 µg/mL
- MIC [10]: 4 to 16 µg/mL
- MIC [11]: 0.25 to 1 µg/mL
- MIC (Klebsiella oxytoca (KPC)): > 16 µg/mL
- MIC [12]: > 16 µg/mL
- MIC [13]: > 16 µg/mL
- MIC [14]: > 16 µg/mL
- MIC [15]: 2 to 4 µg/mL
- MIC [16]: > 16 µg/mL
- MIC (Escherichia coli (NDM)): 8 to 16 µg/mL
- MIC [17]: > 16 µg/mL
- MIC [18]: > 16 µg/mL
- MIC (Escherichia coli (KPC)): 2 to 8 µg/mL
- MIC [19]: 1 µg/mL
- MIC [20]: 0.5 to 16 µg/mL
- MIC [21]: 0.25 to 1 µg/mL
- MIC (Escherichia coli (IMP)): 1 µg/mL
